Laboratory results reported in patent US20070141635A1, “Novel translocation assay” (priority 2003, published 2007).

Legend:
[1] = system: GLUT1; details: Perini et al., Diabetes 53:41-52, 2004; cited from earlier work
[2] = system: GLUT4; details: cited from earlier work
[3] = system: 3T3-L1 adipocytes expressing HA-GLUT4 WT; test: Continuous anti-HA antibody uptake (GLUT4 recycling) experiment; format: cell-based
Protocol: For continuous antibody uptake experiments, cells were incubated for 20 min with or without insulin, whereafter anti-HA (50 μg/ml) or non-relevant antibody was added. Cells that were used to determine the total amount of HA-GLUT4 were not incubated with antibody during this 37° C. incubation. After incubation, the cells were fixed and quenched as described above, and incubated for 20 min with 5% NSS and 0.1% saponin. Cells that were used to determine the total cellular amount of HA-GLUT4 were incubated for 60 min with anti-HA antibody or control antibody in PBS containing 2% NSS. All other cells were incubated with 2% NSS without antibody. Subsequently, the cells were incubated with ALEXA488-conjugated goat-anti-mouse antibody and ALEXA594-conjugated WGA, washed and analysed. The amount of specific anti-HA uptake was expressed as a percentage of total cellular immuno-reactive HA-GLUT4.
To analyze the exchange of GLUT4 with the cell surface under steady state conditions, studies were performed in which live cells were incubated with anti-HA antibody at 37° C. (FIG. 5). […] 3T3-L1 adipocytes expressing HA-GLUT4 WT were stimulated for 2 h with 200 nM insulin in the presence of anti-HA antibody, washed extensively, incubated for 2 h without insulin and anti-HA, and incubated for a further 20 min in the absence (FIG. 5C) or presence (FIG. 5D) of 200 nM insulin.
For quantification of anti-HA antibody uptake, cells were preincubated for 20 min in the presence or absence of insulin after which anti-HA antibody or control antibody was added for various times (FIG. 5E). Antibody uptake was determined by labeling cells with fluorescent secondary antibody after fixation. Antibody uptake was expressed as a percentage of post-fixation anti-HA labeling.
To study this non-recycling GLUT4 pool in adipocytes, 3T3-L1 adipocytes expressing HA-GLUT4 WT were incubated at 37° C. in the continuous presence of anti-HA antibody. Cells were incubated with or without 200 nM insulin for 20 min, after which anti-HA antibody was added in the continued presence or absence of insulin. Cells were incubated further for up to 180 min, fixed, permeablilized, and incubated with fluorescent secondary antibody. The level of anti-HA antibody taken up by the cells was then expressed as a percentage of total post-fixation anti-HA labeling of permeablilized cells.

[4] = system: 3T3-L1 adipocytes expressing HA-GLUT4 WT; test: Inducing GLUT4 translocation with insulin followed by sucrose; format: cell-based; details: 0.3 or 0.6M sucrose for 2 hours after 20 minutes 200 nM insulin; serum free
Protocol: 3T3-L1 adipocytes expressing HA-GLUT4 WT were serum starved for 2 hours at 37° C. Following 20 minutes insulin stimulation with 200 nM insulin, cells were incubated for additional 2 hours in serum free medium supplemented with 0.2% BSA and 0.3 or 0.6M sucrose. After post-fixation anti-HA immunolabeling the level of cell surface HA-GLUT4 levels was determined as a percentage of total HA-GLUT4 detected after cell lysis. […] Furthermore, increasing concentrations of sucrose induce more GLUT4 to translocate to the plasma membrane in the presence of reduced levels of insulin.

[5] = system: HA-GLUT4 expressing 3T3-L1 adipocytes; test: Model of insulin resistance (chronic insulin stimulation, then acute insulin); format: cell-based; details: for level of GLUT4 at the plasma membrane after chronic insulin: FIG. 12A
Protocol: 3T3-L1 adipocytes retrovirally infected with GLUT4 (described in Example 1) were incubated 24 hours or 48 hours either with 600 nM insulin or with medium alone. After this chronic insulin stimulation (as indicated in FIG. 10) at 37° C. in a CO2 incubator, cells were washed and 200 nM insulin was added for additional 10 or 30 minutes. Cell surface levels of HA-GLUT4 were measured using the fluorescence based assay described supra and expressed as a percentage of total HA-GLUT4 detected in the cell. The experiment was also performed with the HA-GLUT4 TAIL mutant
HA-GLUT4 expressing 3T3-L1 adipocytes were grown in 96 well plates, incubated for 2 hours or overnight in medium supplemented with 10% fetal calf serum or no serum. 200 nM insulin in case of acute stimulation and 600 nM insulin in case of chronic stimulation have been used. After overnight stimulation cells were washed and 200 nM fresh insulin was added for 10 or 30 mln.

[6] = system: 3T3-L1 fibroblasts expressing HA-tagged GLUT4; test: Fluorescence-based HA-GLUT4 translocation assay in fibroblasts; format: cell-based
[7] = system: 3T3-L1 adipocytes expressing HA-GLUT4; test: Single cycle GLUT4 internalization experiment; format: cell-based
Protocol: For single cycle internalization experiments cells were stimulated for 20 min with 200 nM insulin after starvation and washed on ice with ice-cold DMEM containing 20 mM HEPES pH 7.4 and 0.2% BSA. Cells were incubated with 100 nM wortmannin or 200 nM insulin and either anti-HA (25 μg/ml) or non-relevant antibody (MOPC21) in DMEM/HEPES/BSA for 1 h on ice. Wortmanin was added to abolish insulin signaling. […] Cells were washed extensively, then either 100 nM wortmanin or 200 nM insulin in DMEM/HEPES/BSA was added. The plate was then transferred to 37° C. and at different times, formaldehyde was added to the wells to a concentration of 3%. After 5 min the formaldehyde was washed away and residual amounts were quenched. The cells were incubated for 20 min with 5% NSS in the absence of saponin, labeled with ALEXA488-conjugated goat-anti-mouse antibody and ALEXA594-conjugated WGA, washed and analysed as described above.
GLUT4 WT molecules that were labeled with anti-HA antibody on ice were rapidly cleared from the cell surface as indicated by the disappearance of GLUT4 at early time points after transfer of the cells from ice to 37° C. (FIG. 4). After approximately 5 min the level of GLUT4 at the PM reached steady state in the presence but not in the absence of insulin, indicating recycling of GLUT4 back to the PM in insulin-stimulated cells. […]

[8] = system: HA-GLUT4-expressing 3T3-L1 adipocytes; test: Fluorescence-based HA-GLUT4 translocation assay (GLUT4 at plasma membrane as percentage of total) in adipocytes; format: cell-based
Protocol: Retrovirally-transduced fibroblasts expressing HA-tagged GLUT 4 or a mutant therof were differentiated into adipocytes essentially as described above. These adipocytes were then subcultured for 30 hours. Insulin was then added at different time points, after which the cells were fixed in 3% formaldehyde. After washing and quenching with 50 mM glycine, cells were incubated for 20 min with 5% normal swine serum (NSS) in the absence or presence of 0.1% saponin to analyse the level of GLUT4 at the plasma membrane (PM) or the total cellular GLUT4 content, respectively. Cells were incubated for 60 min with a saturating concentration of either an antibody directed against the HA tag or a control non-relevant antibody (mouse IgG MOPC21) in PBS containing 2% NSS. After extensive washing, the cells were incubated for 20 min with 5% NSS in the presence or absence of 0.1% saponin to permeabilize all cells. Cells were incubated for 60 min with saturating concentrations of ALEXA488-conjugated goat-anti-mouse antibody (20 μg/ml) and ALEXA594-conjugated WGA (10 μg/ml) in PBS containing 2% NSS. After washing, fluorescence ([…]) was measured using the bottom-reading mode in a fluorescence microtiter plate reader (FLUOstar Galaxy, BMG Labtechnologies, Offenburg, Germany). The percentage of GLUT4 at the PM was calculated for each condition. ALEXA594-WGA fluorescence was used to correct for variation in cell density in each well.
To determine the extent of insulin-induced GLUT4 translocation using the assay described supra, HA-GLUT4-expressing 3T3-L1 adipocytes grown in 96 well plates were incubated for 2 h in the absence of serum, whereafter 200 nM insulin was added at various time points and cell surface levels of HA-GLUT4 were analysed by indirect immunofluorescence labeling (FIG. 2B). Saturating levels of anti-HA and secondary antibodies were used to ensure that substantially all HA-GLUT4 molecules were labeled. A non-relevant antibody was used at the same concentration to determine the non-specific binding of the anti-HA antibody. Insulin stimulated the appearance of HA-GLUT4 at the PM with a half-time of about 2.5 min reaching a plateau by 12 min which was maintained for at least 60 min. No specific anti-HA labeling was detected in non-infected cells (FIG. 2A).

C[C@]12CC[C@H](O)CC1=CC[C@@H]1[C@@H]2CC[C@]2(C)C(=O)CC[C@@H]12 [DHEA, Dehydroepiandrosterone]
effect on levels of GLUT1 at the plasma membrane [1]: enhance levels of GLUT1 at the plasma membrane

CO[C@@H]1C[C@@H](C[C@H]2CC[C@H](C)[C@H]([C@@H](C)C(=O)O)O2)O[C@]2(O[C@](C)([C@H]3CC[C@@](C)([C@@H]4O[C@@H]([C@H]5O[C@@](O)(CO)[C@H](C)C[C@@H]5C)C[C@@H]4C)O3)C[C@H]2C)[C@@H]1C [Nigericin, nigericin]
effect on insulin mediated GLUT4 translocation ([2]; Chu et al., J Cell Biochem. 2002;85:83-91): inhibit insulin mediated GLUT4 translocation

C[C@@H]1C[C@@H]([C@H](O)CC2CC(=O)NC(=O)C2)C(=O)[C@@H](C)C1 [cycloheximide]
GLUT4 that could not be labeled during antibody uptake ([3]; 10 mg/ml cycloheximide for 2 h prior to the addition of antibody, FIG. 6F): 30%

OC[C@H]1O[C@@](CO)(O[C@H]2O[C@H](CO)[C@@H](O)[C@H](O)[C@H]2O)[C@@H](O)[C@@H]1O [sucrose]
level of HA-GLUT4 translocated to the plasma membrane [4]: dramatically increases

insulin
levels of GLUT4 translocation after chronic insulin ([5]; 600 nM insulin 24 or 48 h in the absence of serum (-serum or KRP), then 200 nM insulin): little more than basal levels | level of GLUT4 at the plasma membrane after chronic insulin ([5]; 600 nM insulin 24 h in the presence of serum): dramatically increased | level of GLUT4 at the plasma membrane after chronic insulin ([5]; 600 nM insulin 48 h in the presence of serum): suppressed | time to maximum level of surface GLUT4 ([6]; followed by rapid reduction): 6 min | increase in surface GLUT4 above non-stimulated cells ([6]; maximum level): 5 fold | effect on GLUT4 internalization rate ([7]; 200 nM insulin versus 100 nM wortmannin (basal), GLUT4 WT and TAIL): unaffected | time until level of GLUT4 at the PM reached steady state ([7]; in the presence of 200 nM insulin, after transfer from ice to 37° C.): approximately 5 min | HA-GLUT4 expressed in the cell that did not translocate to the membrane during the experiment ([3]; 200 nM insulin, up to 180 min): approximately 30% | HA-GLUT4 labeled by anti-HA antibody uptake, percentage of total post-fixation labeling ([3]; 200 nM insulin, up to 180 min, FIG. 6A): approximately 30% | size of the recycling pool of GLUT4 ([3]; different doses of insulin, FIG. 8): incrementally increased with increasing doses | time for which plateau of HA-GLUT4 at the PM was maintained ([8]; 200 nM insulin): at least 60 min | time to plateau of HA-GLUT4 at the PM ([8]; 200 nM insulin after 2 h in the absence of serum): ≤ 12 min | half-time of appearance of HA-GLUT4 at the PM ([8]; 200 nM insulin after 2 h in the absence of serum, 96 well plates): about 2.5 min | effect of long-term insulin treatment on cell surface HA-GLUT4 levels ([8]; 200 nM insulin for up to 3 hours, FIG. 6H): did not drastically down-regulate cell surface GLUT4 levels | level of GLUT4 at the PM as percentage of total specific fluorescence ([8]; 200 nM insulin, basal value 4%): 34% | increase in cell surface GLUT4 levels in response to insulin stimulation ([8]; adipocytes, 200 nM insulin): ~8 fold

margatoxin (TIINVKCTSPKQCLPPCKAQFGQSAGAKCMNGKCKCYPH; UniProt P40755 1-39, looked up)
effect on level of GLUT4 translocated to the plasma membrane ([2]; suppression of Kv1.3 activity, Xu et al, Proc Natl Acad Sci USA. 101:3112-3117, 2004): increase the level of GLUT4 translocated to the plasma membrane
